Reference: patent US4160829A, “Antibacterial 1,2,4-oxadiazolylacetamido cephalosporins” (Gist-Brocades N.V., priority 1972, dated 1979)
Converted amounts (≈) assume the structure as drawn. Read-outs that look alike come from different tables or passages of the source.

Columns and labels:
Pseud.aerug. H 10 = assay: agar serial dilution test; assay type: cell-based; conditions: agar serial dilution, 24 hours, 37° C.; read-out: minimal inhibitory concentration (MIC)
Staph.aureus A 2000 [1] = assay: agar serial dilution test; assay type: cell-based, Staphylococcus aureus; conditions: Staphylococcus aureus, A2000, 24 h, agar serial dilution, 24 hours, 37° C.; read-out: minimal inhibitory concentration (MIC)
Strep.haem. A 266 = assay: agar serial dilution test; assay type: cell-based, Streptococcus haemolyticus; conditions: Streptococcus; agar serial dilution, 24 hours, 37° C.; read-out: minimal inhibitory concentration (MIC)
Staph.aureus A 2001 [2] = assay: agar serial dilution test; assay type: cell-based, Staphylococcus aureus; conditions: Staphylococcus aureus, A2001, 24 h, read-out: minimal inhibitory concentration (MIC)
Pseud.aerug. 2396 = assay: agar serial dilution test; assay type: cell-based; conditions: agar serial dilution, 24 hours, 37° C.; read-out: minimal inhibitory concentration (MIC)
Dipl.pneum. L 54 = assay: agar serial dilution test; assay type: cell-based, Diplococcus pneumoniae; conditions: Streptococcus pneumoniae; agar serial dilution, 24 hours, 37° C.; read-out: minimal inhibitory concentration (MIC)
Staph.aureus A 2001 [3] = assay: micro serial dilution test; assay type: cell-based, Staphylococcus aureus; conditions: Staphylococcus aureus, A2001, 18 h, micro serial dilution (in brackets), about 18 hours, 30° C. or 37° C.; read-out: minimal inhibitory concentration (MIC)
Prot.mirab. H 3 = assay: agar serial dilution test; assay type: cell-based, Proteus mirabilis; conditions: Proteus mirabilis; agar serial dilution, 24 hours, 37° C.; read-out: minimal inhibitory concentration (MIC)
Bruc.melit. A 488 = assay: microbe, parasite or virus in culture; assay type: cell-based; conditions: Brucella melitensis, 24 h, read-out: minimal inhibitory concentration (MIC)
Strep. faec. L 80 = assay: agar serial dilution test; assay type: cell-based, Streptococcus faecalis; conditions: Enterococcus faecalis; agar serial dilution, 24 hours, 37° C.; read-out: minimal inhibitory concentration (MIC)
Staph.aureus A 355 [4] = assay: agar serial dilution test; conditions: Staphylococcus aureus, A355, 24 h, read-out: minimal inhibitory concentration (MIC), agar serial dilution, 24 hours, 37° C.; penicillinase-producing strain
Prot.rettg. A 821 = assay: agar serial dilution test; assay type: cell-based, Proteus rettgeri; conditions: Providencia rettgeri, 24 h, read-out: minimal inhibitory concentration (MIC)
Staph.aureus A 2000 [5] = assay: micro serial dilution test; assay type: cell-based, Staphylococcus aureus; conditions: Staphylococcus aureus, A2000, 18 h, micro serial dilution (in brackets), about 18 hours, 30° C. or 37° C.; read-out: minimal inhibitory concentration (MIC)
Esch.coli U 20 = assay: agar serial dilution test; assay type: cell-based, Escherichia coli; conditions: Escherichia coli
Prot.morg. 2241 = assay: agar serial dilution test; assay type: cell-based; conditions: 24 h, agar serial dilution, 24 hours, 37° C.; read-out: minimal inhibitory concentration (MIC)
Haem.infl. A 1030 = assay: micro serial dilution test; assay type: cell-based; conditions: 18 h, micro serial dilution (in brackets), about 18 hours, 30° C. or 37° C.; read-out: minimal inhibitory concentration (MIC)
Salm.typh. R 127 = assay: agar serial dilution test; assay type: cell-based; conditions: 24 h, 37° C., read-out: minimal inhibitory concentration (MIC)
Staph.aureus A 355 [6] = assay: micro serial dilution test; assay type: cell-based, Staphylococcus aureus; conditions: Staphylococcus aureus, A355; micro serial dilution (in brackets), about 18 hours, 30° C. or 37° C.; penicillinase-producing strain; read-out: minimal inhibitory concentration (MIC)
Staph.aureus A 321 = assay: agar serial dilution test; assay type: cell-based, Staphylococcus aureus; conditions: Staphylococcus aureus, A321, 24 h, agar serial dilution, 24 hours, 37° C.; read-out: minimal inhibitory concentration (MIC)
Prot.mirab. A 1200 = assay: agar serial dilution test; assay type: cell-based, Proteus mirabilis; conditions: Proteus mirabilis, 24 h, read-out: minimal inhibitory concentration (MIC)
Shig.equir. T 3 = assay: agar serial dilution test; assay type: cell-based; conditions: 24 h, 37° C., read-out: minimal inhibitory concentration (MIC)
Salm.dubl. P 43 = assay: agar serial dilution test; assay type: cell-based, Salmonella dublin; conditions: Salmonella enterica, read-out: minimal inhibitory concentration (MIC)
Past.multo. A 723 = assay: agar serial dilution test; assay type: cell-based, Pasteurella multocida; conditions: Pasteurella multocida; agar serial dilution, 24 hours, 37° C.; read-out: minimal inhibitory concentration (MIC)
Bac.Subt.ATCC 6633 = assay: agar serial dilution test; assay type: cell-based, Bacillus subtilis; conditions: Bacillus subtilis, ATCC6633, 24 h, agar serial dilution, 24 hours, 37° C.; read-out: minimal inhibitory concentration (MIC)
Kleb.pneum. A 809 = assay: agar serial dilution test; assay type: cell-based, Klebsiella pneumoniae; conditions: Klebsiella pneumoniae; agar serial dilution, 24 hours, 37° C.; read-out: minimal inhibitory concentration (MIC)
Prot.mirab. L 93 = assay: agar serial dilution test; assay type: cell-based, Proteus mirabilis; conditions: Proteus mirabilis; agar serial dilution, 24 hours, 37° C.; read-out: minimal inhibitory concentration (MIC)
[7] = test system: Pseud.aerug. Wyeth A 1058; assay: agar serial dilution test; assay type: cell-based; conditions: agar serial dilution, 24 hours, 37° C.; read-out: minimal inhibitory concentration (MIC)
[8] = agar serial dilution, 24 hours, 37° C.
[9] = U20, agar serial dilution, 24 hours, 37° C., read-out: minimal inhibitory concentration (MIC)
[10] = U20, 24 h, read-out: minimal inhibitory concentration (MIC), agar serial dilution, 24 hours, 37° C.

SMILES	MIC (Pseud.aerug. H 10) [µg/mL]	MIC (Staph.aureus A 2000 [1]) [µg/mL]	MIC (Strep.haem. A 266) [µg/mL]	MIC (Pseud.aerug. 2396) [µg/mL]	MIC (Dipl.pneum. L 54) [µg/mL]	MIC (Staph.aureus A 2001 [3]) [µg/mL]	MIC (Prot.mirab. H 3) [µg/mL]	MIC (Bruc.melit. A 488) [µg/mL]	MIC (Strep. faec. L 80) [µg/mL]	MIC (Staph.aureus A 355 [4]) [µg/mL]	MIC (Staph.aureus A 2000 [5]) [µg/mL]	MIC (Prot.morg. 2241) [µg/mL]	MIC (Haem.infl. A 1030) [µg/mL]	MIC (Salm.typh. R 127) [µg/mL]	MIC (Staph.aureus A 355 [6]) [µg/mL]	MIC (Staph.aureus A 321) [µg/mL]	MIC (Shig.equir. T 3) [µg/mL]	MIC (Past.multo. A 723) [µg/mL]	MIC (Bac.Subt.ATCC 6633) [µg/mL]	MIC (Kleb.pneum. A 809) [µg/mL]	further results
CC(=O)OCC1=C(C(=O)O)N2C(=O)[C@@H](NC(=O)Cc3nc(-c4c(Cl)cccc4Cl)no3)[C@H]2SC1 [Example 11C, 7-{[3-(2,6-dichlorophenyl)-1,2,4-oxadiazol-5-yl]-acetamido}cephalosporanicacid]	> 100	0.5 (≈ 0.948 µM)	0.03 (≈ 0.0569 µM)	> 100	0.06 (≈ 0.114 µM)	0.25 (≈ 0.474 µM)	> 100	6 (≈ 11.4 µM)	1.5 (≈ 2.84 µM)	0.5 (≈ 0.948 µM)	0.18 (≈ 0.341 µM)	> 100	23 (≈ 43.6 µM)	> 100	0.69 (≈ 1.31 µM)	0.12 (≈ 0.228 µM)	25 (≈ 47.4 µM)	6 (≈ 11.4 µM)	0.12 (≈ 0.228 µM)	12.5 (≈ 23.7 µM)	MIC (Staph.aureus A 2001 [2]; [8]): 0.5 µg/mL (≈ 0.948 µM); MIC (Prot.rettg. A 821; [8]): 3 µg/mL (≈ 5.69 µM); MIC (Esch.coli U 20; [9]): > 100 µg/mL; MIC (Prot.mirab. A 1200; [8]): > 100 µg/mL; MIC (Salm.dubl. P 43; [8]): > 100 µg/mL; MIC (Prot.mirab. L 93): 100 µg/mL (≈ 190 µM); MIC [7]: > 100 µg/mL
CC(=O)OCC1=C(C(=O)O)N2C(=O)[C@@H](NC(=O)Cc3noc(C)n3)[C@H]2SC1 [Example 11D, 7-[(5-methyl-1,2,4-oxadiazol-3-yl)-acetamido]-cephalosporanic acid]	> 100	3 (≈ 7.57 µM)	0.5 (≈ 1.26 µM)	> 100	1.5 (≈ 3.78 µM)	0.6 (≈ 1.51 µM)	6 (≈ 15.1 µM)	10 (≈ 25.2 µM)	100 (≈ 252 µM)	6 (≈ 15.1 µM)	1.2 (≈ 3.03 µM)	> 100	90 (≈ 227 µM)	12.5 (≈ 31.5 µM)	6 (≈ 15.1 µM)	1 (≈ 2.52 µM)	1.5 (≈ 3.78 µM)	6 (≈ 15.1 µM)	0.5 (≈ 1.26 µM)	6 (≈ 15.1 µM)	MIC (Staph.aureus A 2001 [2]; [8]): 3 µg/mL (≈ 7.57 µM); MIC (Prot.rettg. A 821; [8]): 40 µg/mL (≈ 101 µM); MIC (Esch.coli U 20; [10]): 12.5 µg/mL (≈ 31.5 µM); MIC (Prot.mirab. A 1200): 12.5 µg/mL (≈ 31.5 µM); MIC (Salm.dubl. P 43; 24 h): 12.5 µg/mL (≈ 31.5 µM); MIC (Prot.mirab. L 93): 6 µg/mL (≈ 15.1 µM); MIC [7]: > 100 µg/mL
CC1=C(C(=O)O)N2C(=O)[C@@H](NC(=O)Cc3nc(C)no3)[C@H]2SC1 [Example 11F, 7-[(3-methyl-1,2,4-oxadiazol-5-yl)-acetamido]-desacetoxycephalosporanic acid]	> 100	50 (≈ 148 µM)	6 (≈ 17.7 µM)	> 100	50 (≈ 148 µM)	8 (≈ 23.6 µM)	> 100	6 (≈ 17.7 µM)	> 100	50 (≈ 148 µM)	15 (≈ 44.3 µM)	> 100	125 (≈ 369 µM)	> 100	15 (≈ 44.3 µM)	6 (≈ 17.7 µM)	12.5 (≈ 36.9 µM)	100 (≈ 296 µM)	6 (≈ 17.7 µM)	100 (≈ 296 µM)	MIC (Staph.aureus A 2001 [2]): 12.5 µg/mL (≈ 36.9 µM); MIC (Prot.rettg. A 821; [8]): > 100 µg/mL; MIC (Esch.coli U 20; [9]): > 100 µg/mL; MIC (Prot.mirab. A 1200; [8]): > 100 µg/mL; MIC (Salm.dubl. P 43; [8]): 100 µg/mL (≈ 296 µM); MIC (Prot.mirab. L 93): > 100 µg/mL; MIC [7]: > 100 µg/mL
Cc1nc(CC(=O)N[C@@H]2C(=O)N3C(C(=O)O)=C(CN=[N+]=[N-])CS[C@H]23)no1 [Example 18, 7-[(5-methyl-1,2,4-oxadiazol-3-yl)-acetamido]-3-azidomethyl-3-cephem-4-carboxylic acid]	> 100	1.5 (≈ 3.95 µM)	0.25 (≈ 0.659 µM)	> 100	3 (≈ 7.91 µM)	0.9 (≈ 2.37 µM)	25 (≈ 65.9 µM)	6 (≈ 15.8 µM)	> 100	1.5 (≈ 3.95 µM)	1.2 (≈ 3.16 µM)	> 100	6 (≈ 15.8 µM)	12.5 (≈ 33 µM)	1.2 (≈ 3.16 µM)	1 (≈ 2.64 µM)	3 (≈ 7.91 µM)	10 (≈ 26.4 µM)	1 (≈ 2.64 µM)	6 (≈ 15.8 µM)	MIC (Staph.aureus A 2001 [2]; [8]): 1 µg/mL (≈ 2.64 µM); MIC (Prot.rettg. A 821): 12.5 µg/mL (≈ 33 µM); MIC (Esch.coli U 20; [10]): 12.5 µg/mL (≈ 33 µM); MIC (Prot.mirab. A 1200; [8]): 25 µg/mL (≈ 65.9 µM); MIC (Salm.dubl. P 43; [8]): 6 µg/mL (≈ 15.8 µM); MIC (Prot.mirab. L 93): 6 µg/mL (≈ 15.8 µM); MIC [7]: > 100 µg/mL
